{"source": "patent US20240024324A1", "about": "“KINASE INHIBITOR COMBINATIONS FOR CANCER TREATMENT” (Merck Patent GmbH, priority 2020, published 2024)", "key": {"[1]": {"tested_on": "Akt", "conditions": "variety of cell-based assays; cited from earlier work"}, "[2]": {"tested_on": "GSC11", "assay": "Orthotopic GSC xenograft model", "format": "in vivo, mice", "procedure": "(§1) The in vivo effects of M2698 and pimasertib, alone and in combination, were assessed in the GSC models after orthotopic implantation into mice. Treatment duration and time of euthanasia post-implantation was 5-10 weeks. Endpoints were expression of PD markers pS6 and pERK, proliferation marker Ki67, apoptosis as measured by TUNEL, tumor volume and survival."}, "[3]": {"tested_on": "GSC272", "assay": "Orthotopic GSC xenograft model", "format": "in vivo, mice", "procedure": "as §1"}, "[4]": {"tested_on": "GSC20", "assay": "Orthotopic GSC xenograft model", "format": "in vivo, mice", "procedure": "as §1"}, "[5]": {"tested_on": "GSC6-27", "assay": "Orthotopic GSC xenograft model", "format": "in vivo, mice", "procedure": "as §1"}, "[6]": {"tested_on": "GSC231", "assay": "Orthotopic GSC xenograft model", "format": "in vivo, mice", "procedure": "as §1"}, "[7]": {"tested_on": "GSC7-2", "assay": "Orthotopic GSC xenograft model", "format": "in vivo, mice", "procedure": "as §1"}, "[8]": {"tested_on": "GSC17", "assay": "Orthotopic GSC xenograft model", "format": "in vivo, mice", "procedure": "as §1"}, "[9]": {"tested_on": "Non-Small Lung Cancer (NSCLC) Brain Metastases PDX", "assay": "PDX models of NSCLC brain metastases", "format": "in vivo"}, "[10]": {"tested_on": "Her2+/HR− Breast Cancer PDX", "assay": "PDX models of Her2+/HR- breast cancer", "format": "in vivo"}, "[11]": {"tested_on": "GSC11", "assay": "Induction of apoptosis in GSC lines in vitro", "format": "cell-based", "procedure": "(§2) FIG. 1: In vitro analyses in GSC lines. (A) Western blot analysis of protein expression; (B) IC50 of M2698; (C) IC50 of pimasertib; and (D) apoptotic GSC11, GSC7-2, and GSC17 cells after treatment with M2698, pimasertib, or M2698+pimasertib combination. […]\n(§3) Induction of apoptosis by M2698, pimasertib, and the combination was measured in three of five GSC lines that were sensitive to M2698 in vitro."}, "[12]": {"tested_on": "GSC7-2", "assay": "Induction of apoptosis in GSC lines in vitro", "format": "cell-based", "procedure": "as §2, §3"}, "[13]": {"tested_on": "GSC17", "assay": "Induction of apoptosis in GSC lines in vitro", "format": "cell-based", "procedure": "as §2, §3"}, "[14]": {"target": "p70S6K (Homo sapiens, UniProt P23443)", "sequence (P23443 whole entry)": "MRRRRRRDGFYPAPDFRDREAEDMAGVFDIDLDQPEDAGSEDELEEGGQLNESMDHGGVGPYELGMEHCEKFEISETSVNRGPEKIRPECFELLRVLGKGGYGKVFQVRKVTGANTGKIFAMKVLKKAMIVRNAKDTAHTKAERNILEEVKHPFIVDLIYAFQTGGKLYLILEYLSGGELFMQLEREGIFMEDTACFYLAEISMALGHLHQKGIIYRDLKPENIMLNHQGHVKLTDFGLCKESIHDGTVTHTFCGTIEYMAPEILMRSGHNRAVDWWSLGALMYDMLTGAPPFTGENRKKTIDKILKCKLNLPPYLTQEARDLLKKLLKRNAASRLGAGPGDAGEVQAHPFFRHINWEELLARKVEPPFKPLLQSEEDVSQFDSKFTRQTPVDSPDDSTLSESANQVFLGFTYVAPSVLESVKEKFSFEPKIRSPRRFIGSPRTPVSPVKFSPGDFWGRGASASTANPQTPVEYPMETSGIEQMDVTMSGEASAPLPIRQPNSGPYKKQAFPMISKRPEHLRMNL", "conditions": "variety of cell-based assays; cited from earlier work"}, "[15]": {"tested_on": "SCCHN PDX", "assay": "38 PDX models of SCCHN, 1+1 screen", "format": "in vivo, mouse", "conditions": "38 models, M2698 25 mg/kg PO QDx28, Cetuximab 30 mg/kg IP 2wklyx4", "procedure": "46 SCCHN PDX models were run in a 1+1 scheme (one mouse per treatment group). […] With the adjustment to the cancellation, 38 models were completed. […] After implantation, treatments began when average tumor volume reached ˜200 mm^3 for each model. Tumor volumes were measured for each model until the control tumor reached ˜1200 mm^3 at which time all animals for that model were euthanized."}, "[16]": {"tested_on": "Colorectal Cancer PDX", "assay": "75 PDX models of colorectal cancer", "format": "in vivo", "conditions": "CRC PDX; M2698 25 mg/kg po qd, Pimasertib 20 mg/kg po qd, Cetuximab 20 mg/kg ip q2w", "excerpt": "Of the 75 models, 25 were wild type, 25 KRas mutant, and 25 BRaf mutant."}, "[17]": {"tested_on": "human GBM", "conditions": "orthotopically implanted models of human GBM; cited from earlier work"}, "[18]": {"tested_on": "GSC11", "assay": "GSC lines: sensitivity in vitro (IC50)", "format": "cell-based", "conditions": "GSC11 line in vitro", "procedure": "(§4) FIG. 1: In vitro analyses in GSC lines. (A) Western blot analysis of protein expression; (B) IC50 of M2698; (C) IC50 of pimasertib; and (D) apoptotic GSC11, GSC7-2, and GSC17 cells after treatment with M2698, pimasertib, or M2698+pimasertib combination. Single agents were tested at their IC50; half the IC50 of each compound was used for the combination.\n(§5) All GSC lines expressed Akt. Relatively high pAkt expression in GSC17, GSC7-2, GSC231, GSC11, GSC20, GSC6-27, and GSC8-11 lines compared with GSC272 and GSC267 (FIG. 1A)."}, "[19]": {"tested_on": "GSC20", "assay": "GSC lines: sensitivity in vitro (IC50)", "format": "cell-based", "conditions": "GSC20 line", "procedure": "as §4, §5"}, "[20]": {"tested_on": "GSC6-27", "assay": "GSC lines: sensitivity in vitro (IC50)", "format": "cell-based", "conditions": "GSC6-27 line in vitro", "procedure": "as §4, §5"}, "[21]": {"tested_on": "GSC231", "assay": "GSC lines: sensitivity in vitro (IC50)", "format": "cell-based", "conditions": "GSC231 line in vitro", "procedure": "as §4, §5"}, "[22]": {"tested_on": "GSC8-11", "assay": "GSC lines: sensitivity in vitro (IC50)", "format": "cell-based", "conditions": "GSC8-11 line in vitro", "procedure": "as §4, §5"}, "[23]": {"tested_on": "GSC7-2", "assay": "GSC lines: sensitivity in vitro (IC50)", "format": "cell-based", "conditions": "GSC7-2 line in vitro", "procedure": "as §4, §5"}, "[24]": {"tested_on": "GSC17", "assay": "GSC lines: sensitivity in vitro (IC50)", "format": "cell-based", "conditions": "GSC17 line in vitro", "procedure": "as §4, §5"}, "[25]": {"tested_on": "cancer cell lines", "conditions": "broad panel of cancer cell lines; cited from earlier work"}, "[26]": {"tested_on": "human cholangiocarcinoma cancer PDX", "assay": "PDX models of cholangiocarcinoma", "format": "in vivo, mice", "conditions": "20 mg/kg each agent QD PO", "excerpt": "The objective of this experiment was to evaluate the antitumor activity of M2698 alone and in combination with Pimasertib in a panel of 13 Patient-Derived Xenograft models representing human cholangiocarcinoma cancer derived from Chinese patients in immune-deficient mice.\nVehicle: 0.5% Methocel/0.25% Tween20 in Milli-Q Water. Tumors from three untreated mice were collected as satellite samples when reached a tumor volume between 300-500 mm3."}, "[27]": {"conditions": "in vivo; cited from earlier work"}}, "data": [{"smiles": "NC(=O)c1cccc2c(N[C@H](CN3CCC3)c3ccc(Cl)c(C(F)(F)F)c3)ncnc12", "note": "[M2698, 4-[(S)-2-Azetidin-1-yl-1-(4-chloro-3-trifluoromethyl-phenyl)-ethylamino]-quinazoline-8-carboxylic acid amide]", "values": [{"measurement": "inhibition of Akt", "setting": "[1]", "value": "highly potent"}, {"measurement": "pERK expression in orthotopic tumor", "setting": "[2]; GSC11, PD marker", "value": "reduced pERK"}, {"measurement": "pS6 expression in orthotopic tumor", "setting": "[2]; GSC11, PD marker", "value": "significantly reduced pS6"}, {"measurement": "tumor volume / tumor growth", "setting": "[2]; GSC11 orthotopic, vs vehicle", "value": "had a trend to do so"}, {"measurement": "pERK expression in orthotopic tumor", "setting": "[3]; GSC272, PD marker", "value": "reduced pERK"}, {"measurement": "pS6 expression in orthotopic tumor", "setting": "[3]; GSC272, PD marker", "value": "significantly reduced pS6"}, {"measurement": "median survival", "setting": "[3]; GSC272 orthotopic, vs vehicle", "value": "prolonged survival"}, {"measurement": "tumor volume / tumor growth", "setting": "[3]; GSC272 orthotopic, vs vehicle", "value": "significantly inhibited tumor growth"}, {"measurement": "pS6 expression in orthotopic tumor", "setting": "[4]; GSC20, PD marker", "value": "lack of significant response"}, {"measurement": "tumor volume / tumor growth", "setting": "[4]; GSC20 orthotopic, vs vehicle", "value": "had not responded"}, {"measurement": "pERK expression in orthotopic tumor", "setting": "[5]; GSC6-27, PD marker", "value": "reduced pERK"}, {"measurement": "pS6 expression in orthotopic tumor", "setting": "[5]; GSC6-27, PD marker", "value": "significantly reduced pS6"}, {"measurement": "tumor volume / tumor growth", "setting": "[5]; GSC6-27 orthotopic, vs vehicle", "value": "significantly inhibited tumor growth"}, {"measurement": "pERK expression in orthotopic tumor", "setting": "[6]; GSC231, PD marker", "value": "reduced pERK"}, {"measurement": "pS6 expression in orthotopic tumor", "setting": "[6]; GSC231, PD marker", "value": "significantly reduced pS6"}, {"measurement": "median survival", "setting": "[6]; GSC231 orthotopic, vs vehicle", "value": "prolonged survival"}, {"measurement": "tumor volume / tumor growth", "setting": "[6]; GSC231 orthotopic, vs vehicle", "value": "significantly inhibited tumor growth"}, {"measurement": "pERK expression in orthotopic tumor", "setting": "[7]; GSC7-2, PD marker", "value": "reduced pERK"}, {"measurement": "pS6 expression in orthotopic tumor", "setting": "[7]; GSC7-2, PD marker", "value": "significantly reduced pS6"}, {"measurement": "tumor volume / tumor growth", "setting": "[7]; GSC7-2 orthotopic, vs vehicle", "value": "significantly inhibited tumor growth"}, {"measurement": "proliferation (Ki67 by immunohistochemistry)", "setting": "[7]; GSC7-2 tumor sections, compared to vehicle", "value": "significantly reduced proliferation"}, {"measurement": "number of apoptotic cells/field", "setting": "[7]; GSC7-2 xenografts, after 10 weeks", "value": "52.17±25.20", "unit": "cells/field"}, {"measurement": "apoptosis in xenografts vs control", "setting": "[7]; GSC7-2 xenografts, at 7.5 weeks", "value": "Neither M2698, pimasertib, nor combination treatment significantly affected apoptosis"}, {"measurement": "pERK expression in orthotopic tumor", "setting": "[8]; GSC17, PD marker", "value": "reduced pERK"}, {"measurement": "pS6 expression in orthotopic tumor", "setting": "[8]; GSC17, PD marker", "value": "significantly reduced pS6"}, {"measurement": "tumor volume / tumor growth", "setting": "[8]; GSC17 orthotopic, vs vehicle", "value": "significantly inhibited tumor growth"}, {"measurement": "proliferation (Ki67 by immunohistochemistry)", "setting": "[8]; GSC17 tumor sections, compared to vehicle", "value": "significantly reduced proliferation"}, {"measurement": "tumor control rate (TCR)", "setting": "[9]", "value": 5, "unit": "%"}, {"measurement": "tumor volume over the duration of the experiment", "setting": "[10]", "value": "stasis of the tumor volume"}, {"measurement": "apoptotic percentage", "setting": "[11]; GSC11, monotherapy at 2×IC50", "value": 62, "unit": "%"}, {"measurement": "apoptotic percentage", "setting": "[11]; GSC11, monotherapy at the IC50", "value": 56, "unit": "%"}, {"measurement": "apoptotic percentage", "setting": "[12]; GSC7-2, monotherapy at 2×IC50", "value": 17, "unit": "%"}, {"measurement": "apoptotic percentage", "setting": "[12]; GSC7-2, monotherapy at the IC50", "value": 13, "unit": "%"}, {"measurement": "apoptotic percentage", "setting": "[13]; GSC17, monotherapy at 2×IC50", "value": 12, "unit": "%"}, {"measurement": "apoptotic percentage", "setting": "[13]; GSC17, monotherapy at the IC50", "value": 11, "unit": "%"}, {"measurement": "inhibition of p70S6K", "setting": "[14]", "value": "highly potent"}, {"measurement": "Models with an Overall Response (“RECIST”)", "setting": "[15]", "value": "7/38"}, {"measurement": "Partial response (number of models)", "setting": "[15]", "value": 0}, {"measurement": "Tumor Progression (number of models)", "setting": "[15]", "value": 31}, {"measurement": "Tumor Stasis (number of models)", "setting": "[15]", "value": 7}, {"measurement": "tumor control rate (TCR)", "setting": "[15]", "value": 18, "unit": "%"}, {"measurement": "tumor control rate (TCR)", "setting": "[16]", "value": 15, "unit": "%"}, {"measurement": "tumor control rate (TCR), models controlled/models", "setting": "[16]", "value": "11/74"}, {"measurement": "survival", "setting": "[17]", "value": "prolongs survival"}, {"measurement": "tumor growth", "setting": "[17]", "value": "reduces tumor growth"}, {"measurement": "IC50", "setting": "[18]", "value": "< 2000", "unit": "nM"}, {"measurement": "sensitivity in vitro", "setting": "[19]", "value": "insensitivity"}, {"measurement": "IC50", "setting": "[20]", "value": "< 2000", "unit": "nM"}, {"measurement": "IC50", "setting": "[21]", "value": "< 2000", "unit": "nM"}, {"measurement": "IC50", "setting": "[22]", "value": "< 2000", "unit": "nM"}, {"measurement": "IC50", "setting": "[23]", "value": "< 2000", "unit": "nM"}, {"measurement": "IC50", "setting": "[24]", "value": "< 2000", "unit": "nM"}, {"measurement": "anti-tumor activity", "setting": "[25]", "value": "potent anti-tumor activity"}, {"measurement": "tumor stasis, number of tumor samples", "setting": "[26]", "value": "2/12"}, {"measurement": "tumor stasis, share of tumor samples", "setting": "[26]", "value": 17, "unit": "%"}, {"measurement": "blood-brain barrier penetration", "setting": "[27]", "value": "crosses the blood-brain barrier"}]}]}
